From patent publication US10745398B2, “2-(het)aryl-substituted fused heterocycle derivatives as pesticides” (Bayer CropScience Aktiengesellschaft, priority 2015, dated 2020) come the findings set out here.

The nature of data set [1]: log P (neutral) by HPLC on reversed-phase column (C 18), EEC Directive 79/831 Annex V.A8. The settings on record: HPLC reversed-phase C 18, 55° C., neutral range pH 7.8, ammonium hydrogencarbonate/acetonitrile. It is filed as physicochemical.
Data set [2] has as its system adult cat fleas (Ctenocephalides felis). The data set can be described thus: Ctenocephalides felis - in vitro contact tests with adult cat fleas. The settings on record: application rate 5 μg/cm^2 (500 g/ha), after 48 h. Type of data set: in vivo. On the procedure:
For the coating of the test tubes, 9 mg of active compound are first dissolved in 1 ml of acetone p.a. and then diluted to the desired concentration with acetone p.a. 250 μl of the solution are distributed homogeneously on the inner walls and the base of a 25 ml test tube by turning and rocking on an orbital shaker (rocking rotation at 30 rpm for 2 h). With 900 ppm active compound solution and internal surface 44.7 cm^2, given homogeneous distribution, an area-based dose of 5 μg/cm^2 is achieved.
After the solvent has evaporated off, the tubes are populated with 5-10 adult cat fleas (Ctenocephalides felis), sealed with a perforated plastic lid and incubated in a horizontal position at room temperature and ambient humidity. After 48 h, efficacy is determined. To this end, the test tubes are stood upright and the fleas are knocked to the base of the tube. Fleas which remain motionless at the base or move in an uncoordinated manner are considered to be dead or moribund.
100% efficacy means that all the fleas were dead or moribund. 0% efficacy means that no fleas were harmed.

Data set [3] relates to engorged adult female cattle ticks (Boophilus microplus). The data set can be described thus: Boophilus microplus - injection test. The settings on record: application rate 20 μg/animal, assessed after 7 days. It is filed as in vivo. The method, then: (§1) Solvent: dimethyl sulphoxide
To produce a suitable active compound preparation, 10 mg of active compound are mixed with 0.5 ml of solvent and the concentrate is diluted with solvent to the desired concentration.
1 μl of the active compound solution is injected into the abdomen of 5 engorged adult female cattle ticks (Boophilus microplus). The animals are transferred into dishes and kept in a climate-controlled room.
Efficacy is assessed after 7 days by laying of fertile eggs. Eggs which are not visibly fertile are stored in a climate-controlled cabinet until the larvae hatch after about 42 days. An efficacy of 100% means that none of the ticks has laid any fertile eggs; 0% means that all the eggs are fertile.

Data set [4] concerns unfed adult cat fleas (Ctenocephalides felis). The data set can be described thus: Ctenocephalides felis - oral test. Type of data set: in vivo. The settings on record: application rate 100 ppm in citrated cattle blood, after 2 days. On the procedure: as §1
To produce a suitable active compound preparation, 10 mg of active compound are mixed with 0.5 ml of dimethyl sulphoxide. Dilution with citrated cattle blood gives the desired concentration.
About 20 unfed adult cat fleas (Ctenocephalides felis) are placed into a chamber which is closed at the top and bottom with gauze. A metal cylinder whose bottom end is closed with parafilm is placed onto the chamber. The cylinder contains the blood/active compound preparation, which can be imbibed by the fleas through the parafilm membrane.
After 2 days, the kill in % is determined. 100% means that all of the fleas have been killed; 0% means that none of the fleas have been killed.

The subject of data set [5] is L1 larvae of the Australian sheep blowfly (Lucilia cuprina). The data set can be described thus: Lucilia cuprina test. Type of data set: in vivo. The settings on record: application rate 100 ppm, after 2 days. The method, then:
as §1
(§2) To produce a suitable active compound preparation, 10 mg of active compound are mixed with 0.5 ml of dimethyl sulphoxide, and the concentrate is diluted with water to the desired concentration.
About 20 L1 larvae of the Australian sheep blowfly (Lucilia cuprina) are transferred into a test vessel containing minced horsemeat and the active compound preparation of the desired concentration.
After 2 days, the kill in % is determined. 100% means that all the larvae have been killed; 0% means that no larvae have been killed.

For data set [6], the system named is adult houseflies (Musca domestica). Description: Musca domestica test. It is filed as in vivo. The settings on record: application rate 100 ppm, after 2 days. The method, then: as §1, §2
Vessels containing a sponge treated with sugar solution and the active compound preparation of the desired concentration are populated with 10 adult houseflies (Musca domestica).
After 2 days, the kill in % is determined. 100% means that all of the flies have been killed; 0% means that none of the flies have been killed.

Data set [7] concerns green peach aphid (Myzus persicae). The data set can be described thus: Myzus persicae - spray test. It is filed as in vivo. The settings on record: application rate 500 g/ha, Chinese cabbage leaf discs, after 5-6 days. The method, then: Solvent: 78 parts by weight of acetone • • 1.5 parts by weight of dimethylformamide
(§3) Emulsifier: alkylaryl polyglycol ether
(§4) To produce a suitable active compound preparation, 1 part by weight of active compound is dissolved with the stated parts by weight of solvent and made up with water containing an emulsifier concentration of 1000 ppm until the desired concentration is attained. To produce further test concentrations, the preparation is diluted with emulsifier-containing water.
Discs of Chinese cabbage leaves (Brassica pekinensis) infested by all stages of the green peach aphid (Myzus persicae) are sprayed with an active compound preparation of the desired concentration.
After 5-6 days, the efficacy in % is determined. 100% means that all the aphids have been killed; 0% means that no aphids have been killed.

For data set [8], the system named is larvae of the mustard beetle (Phaedon cochleariae). The data set can be described thus: Phaedon cochleariae - spray test. It is filed as in vivo. The settings on record: application rate 500 g/ha, Chinese cabbage leaf discs, after 7 days. The method, then: (§5) Solvent: 78.0 parts by weight of acetone • • 1.5 parts by weight of dimethylformamide
as §3, §4
After 7 days, the efficacy in % is determined. 100% means that all the beetle larvae have been killed; 0% means that no beetle larvae have been killed.

Data set [9] has as its system caterpillars of the armyworm (Spodoptera frugiperda). The data set can be described thus: Spodoptera frugiperda - spray test. It is filed as in vivo. The settings on record: application rate 500 g/ha, maize leaf discs, after 7 days. The method, then: as §5, §3, §4
Leaf discs of maize (Zea mays) are sprayed with an active compound preparation of the desired concentration and, after drying, populated with caterpillars of the armyworm (Spodoptera frugiperda).
After 7 days, the efficacy in % is determined. 100% means that all the caterpillars have been killed; 0% means that no caterpillar has been killed.

In data set [10] the test system is greenhouse red spider mite (Tetranychus urticae). Description: Tetranychus urticae - spray test, OP-resistant. Type of data set: in vivo. The settings on record: application rate 500 g/ha, bean leaf discs, after 6 days. On the procedure:
as §5, §3, §4
Discs of bean leaves (Phaseolus vulgaris) infested with all stages of the greenhouse red spider mite (Tetranychus urticae) are sprayed with an active compound preparation of the desired concentration.
After 6 days, the efficacy in % is determined. 100% means that all the spider mites have been killed; 0% means that no spider mites have been killed.

Data set [11] relates to southern root-knot nematode (Meloidogyne incognita). Description: Meloidogyne incognita test. Type of data set: in vivo. The settings on record: application rate 20 ppm, lettuce, after 14 days. The method, then:
Solvent: 125.0 parts by weight of acetone
To produce a suitable preparation of active compound, 1 part by weight of active compound is mixed with the stated amount of solvent and the concentrate is diluted with water to the desired concentration.
Vessels are filled with sand, active compound solution, an egg/larvae suspension of the southern root-knot nematode (Meloidogyne incognita) and lettuce seeds. The lettuce seeds germinate and the plants develop. The galls develop on the roots.
After 14 days, the nematicidal efficacy in % is determined by the formation of galls. 100% means that no galls were found; 0% means that the number of galls on the treated plants corresponds to the untreated control.

Take `CCS(=O)(=O)c1ccc(-n2cnn(-c3ccccc3F)c2=O)nc1-c1nc2cc(C(F)(F)F)ncc2n1C` [Example I-1]: the “log P (neutral)” value in [1] is given as “Example I-1: logP (neutral): 3.03 ^1H-NMR(400.0 MHz, d6-DMSO): δ =”. Besides, the “efficacy (fleas dead or moribund)” value in data set [2] was determined as 100%. The “efficacy (no laying of fertile eggs)” value in [3] was 80%. In addition, the “efficacy (kill in %)” value in data set [4] stood at 100%; in data set [5], 100%; in data set [6], 80%. The “efficacy (aphids killed)” value in data set [7] is given as 90%. Moreover, the “efficacy (beetle larvae killed)” value in data set [8] is reported as 100%. Moreover, the “efficacy (caterpillars killed)” value in [9] is listed as 100%. Moreover, the “efficacy (spider mites killed)” value in data set [10] is reported as 100%.
For `CCS(=O)(=O)c1ccc(-n2ncn(-c3ccccc3)c2=O)nc1-c1nc2cc(C(F)(F)F)ncc2n1C` [Example I-15], the “log P (neutral)” value in data set [1] was “Example I-15: logP (neutral): 2.70 1H-NMR(400.0 MHz, d6-DMSO): □ =”. In data set [2], the “efficacy (fleas dead or moribund)” value is on record as 100%. The “efficacy (no laying of fertile eggs)” value in [3] was found to be 80%. Moreover, the “efficacy (kill in %)” value in data set [4] and in data set [5] was 100% in each case. Moreover, the “nematicidal efficacy (formation of galls)” value in data set [11] is given as 100%. For the same compound, the “efficacy (beetle larvae killed)” value in data set [8] worked out at 100%. For the same compound, the “efficacy (caterpillars killed)” value in data set [9] worked out at 100%. Further, the “efficacy (spider mites killed)” value in data set [10] came to 70%.
In the case of `CCS(=O)(=O)c1ccc(-n2ncn(-c3cccnc3)c2=O)nc1-c1nc2cc(C(F)(F)F)ncc2n1C` [Example I-17], the “log P (neutral)” value in data set [1] was “Example I-17: logP (neutral): 2.06 1H-NMR(400.0 MHz, d6-DMSO): □ =”. For the same compound, the “efficacy (kill in %)” value is given as 95% in data set [4] and 100% in data set [5]. For the same compound, in data set [11], the “nematicidal efficacy (formation of galls)” value is 100%. Moreover, the “efficacy (aphids killed)” value in data set [7] turned out to be 90%. In [8], the “efficacy (beetle larvae killed)” value is reported as 100%. In addition, in [10], the “efficacy (spider mites killed)” value is given as 90%.
